Experimental data published in patent US20230242494A1, “MALONITRILE DERIVATIVES” (Hoffmann-La Roche Inc., priority 2020, published 2023).

molecular target: T1, human cGAS (residues 161-522) (Homo sapiens, UniProt Q8N884); experiment: cGAS Activity Assay—Malachite Green; assay type: biochemical; conditions: recombinant purified human cGAS 25 nM; 80 μM ATP, 80 μM GTP, 100 nM ISD; 4 hour at RT; phosphate detection by Malachite Green
T1 construct: human cGAS (residues 161-522); made in house
Method in brief: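 Human cGAS (161-522, 25 nM) in 20 mM TRIS pH 7.5, 5 mM MgCl2, 0.01% BSA with 80 μM ATP, 80 μM GTP and 100 nM ISD DNA, 4 h at RT. Pyrophosphate converted by PPase, phosphate read with Malachite Green at 620 nm; IC50 from 4-parameter fit of 16-point series.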

T1 sequence (Q8N884 161-522): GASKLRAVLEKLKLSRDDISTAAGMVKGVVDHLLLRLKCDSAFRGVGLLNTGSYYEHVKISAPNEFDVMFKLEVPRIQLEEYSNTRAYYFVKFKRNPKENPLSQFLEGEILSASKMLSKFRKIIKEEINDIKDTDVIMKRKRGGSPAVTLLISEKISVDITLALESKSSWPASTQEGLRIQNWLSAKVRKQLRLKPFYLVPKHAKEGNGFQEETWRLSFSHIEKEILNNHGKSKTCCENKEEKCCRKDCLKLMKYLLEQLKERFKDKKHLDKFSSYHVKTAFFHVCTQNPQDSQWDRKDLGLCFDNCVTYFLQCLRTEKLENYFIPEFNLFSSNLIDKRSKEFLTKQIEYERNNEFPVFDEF

| SMILES | IC50 [µM] |
| --- | --- |
| Cc1oncc1/C(O)=C(\C#N)C(=O)Nc1ncc(C(F)(F)F)cc1Cl [Example 84, (Z)-N-(3-chloro-5-(trifluoromethyl)pyridin-2-yl)-2-cyano-3-hydroxy-3-(5-methylisoxazol-4-yl)acrylamide] | 0.28 |
| Cc1oncc1/C(O)=C(\C#N)C(=O)Nc1ncc(OCC2CCCC2)cn1 [Example 85, (Z)-2-cyano-N-(5-(cyclopentylmethoxy)pyrimidin-2-yl)-3-hydroxy-3-(5-methylisoxazol-4-yl)acrylamide] | 0.16 |
| Cc1oncc1/C(O)=C(\C#N)C(=O)Nc1ncc(C#Cc2ccccc2)cn1 [Example 86, (Z)-2-cyano-3-hydroxy-3-(5-methylisoxazol-4-yl)-N-(5-(phenylethynyl)pyrimidin-2-yl)acrylamide] | 0.48 |
| Cc1oncc1/C(O)=C(\C#N)C(=O)Nc1ncc(CC2CCCCC2)cn1 [Example 88, (Z)-2-cyano-N-(5-(cyclohexylmethyl)pyrimidin-2-yl)-3-hydroxy-3-(5-methylisoxazol-4-yl)acrylamide] | 0.16 |
| COCCOc1cnc(NC(=O)/C(C#N)=C(\O)c2cnoc2C)nc1 [Example 89, (Z)-2-cyano-3-hydroxy-N-(5-(2-methoxyethoxy)pyrimidin-2-yl)-3-(5-methylisoxazol-4-yl)acrylamide] | 0.08 |
| Cc1oncc1/C(O)=C(\C#N)C(=O)Nc1ncc(C(F)(F)F)cc1F [Example 92] | 0.25 |
| Cc1oncc1/C(O)=C(\C#N)C(=O)Nc1ncc(C(F)(F)F)cn1 [Example 94, (Z)-2-cyano-3-hydroxy-3-(5-methylisoxazol-4-yl)-N-(5-(trifluoromethyl)pyrimidin-2-yl)acrylamide] | 0.09 |
| Cc1oncc1/C(O)=C(\C#N)C(=O)Nc1ncc(S(=O)(=O)N(C)C)cn1 [Example 96, (Z)-2-cyano-N-(5-(N,N-dimethylsulfamoyl)pyrimidin-2-yl)-3-hydroxy-3-(5-methylisoxazol-4-yl)acrylamide] | 0.07 |
| CCOc1cnc(NC(=O)/C(C#N)=C(\O)c2cnoc2C)nc1 [Example 98, (Z)-2-cyano-N-(5-ethoxypyrimidin-2-yl)-3-hydroxy-3-(5-methylisoxazol-4-yl)acrylamide] | 0.08 |
| Cc1oncc1/C(O)=C(\C#N)C(=O)Nc1ncc(C(=O)N(C)Cc2ccccc2)cn1 [Example 100, N-benzyl-2-[[(Z)-2-cyano-3-hydroxy-3-(5-methylisoxazol-4-yl)prop-enoyl]amino]-N-methyl-2-pyrimidine-5-carboxamide] | 0.07 |
| Cc1oncc1/C(O)=C(\C#N)C(=O)Nc1nccc(OCCF)n1 [Example 101, (Z)-2-cyano-N-(4-(2-fluoroethoxy)pyrimidin-2-yl)-3-hydroxy-3-(5-methylisoxazol-4-yl)acrylamide] | 0.12 |
| Cc1oncc1/C(O)=C(\C#N)C(=O)Nc1ccc(C(C)(C)c2ccccc2)cc1 [Example 104, (Z)-2-cyano-3-hydroxy-3-(5-methylisoxazol-4-yl)-N-(4-(2-phenylpropan-2-yl)phenyl)acrylamide] | 3.11 |
| Cc1oncc1/C(O)=C(\C#N)C(=O)Nc1ncc(C(=O)NCc2ccccc2)cn1 [Example 106, N-benzyl-2-[[(Z)-2-cyano-3-hydroxy-3-(5-methylisoxazol-4-yl)prop-2-enoyl]amino]pyrimidine-5-carboxamide] | 0.05 |
| Cc1oncc1/C(O)=C(\C#N)C(=O)Nc1ncc(Br)cn1 [Example 107, (Z)-N-(5-bromopyrimidin-2-yl)-2-cyano-3-hydroxy-3-(5-methylisoxazol-4-yl)acrylamide] | 0.06 |
| COCCS(=O)(=O)c1cnc(NC(=O)/C(C#N)=C(\O)c2cnoc2C)nc1 [Example 110, (Z)-2-cyano-3-hydroxy-N-(5-((2-methoxyethyl)sulfonyl)pyrimidin-2-yl)-3-(5-methylisoxazol-4-yl)acrylamide] | 0.06 |
| Cc1oncc1/C(O)=C(\C#N)C(=O)Nc1ccc([S+](C)[O-])cc1 (stereo not shown) [Example 116, (Z)-2-cyano-3-hydroxy-3-(5-methylisoxazol-4-yl)-N-(4-methylsulfinylphenyl) prop-2-enamide] | 0.38 |
| COCCN(C)S(=O)(=O)c1cnc(NC(=O)/C(C#N)=C(\O)c2cnoc2C)nc1 [Example 117, (Z)-2-Cyano-3-hydroxy-N-(5-(N-(2-methoxyethyl)-N-methylsulfamoyl)pyrimidin-2-yl)-3-(5-methylisoxazol-4-yl)acrylamide] | 0.05 |
| COCCNS(=O)(=O)c1cnc(NC(=O)/C(C#N)=C(\O)c2cnoc2C)nc1 [Example 118, (Z)-2-cyano-3-hydroxy-N-(5-(N-(2-methoxy-ethyl)sulfamoyl)pyrimidin-2-yl)-3-(5-methylisoxazol-4-yl)acrylamide] | 0.04 |
| COCCN(C)S(=O)(=O)c1ccc(NC(=O)/C(C#N)=C(\O)c2cnoc2C)cc1 [Example 119, (Z)-2-Cyano-3-hydroxy-N-(4-(N-(2-methoxyethyl)-N-methylsulfamoyl)phenyl)-3-(5-methylisoxazol-4-yl)acrylamide] | 0.17 |

Now from value to compound:

| IC50 [µM] | SMILES |
| --- | --- |
| 1.02 | Cc1oncc1/C(O)=C(\C#N)C(=O)Nc1ccc(Oc2ccccc2)cn1 [Example 83, (Z)-2-cyano-3-hydroxy-3-(5-methylisoxazol-4-yl)-N-(5-phenoxypyridin-2-yl)acrylamide] |
| 0.24 | Cc1oncc1/C(O)=C(\C#N)C(=O)Nc1nccc(CCc2ccccc2)n1 [Example 87, (Z)-2-cyano-3-hydroxy-3-(5-methylisoxazol-4-yl)-N-(4-phenethylpyrimidin-2-yl)acrylamide] |
| 0.13 | Cc1oncc1/C(O)=C(\C#N)C(=O)Nc1ccc([S+]([O-])c2ccccc2)cn1 (stereo not shown) [Example 90, (Z)-2-cyano-3-hydroxy-3-(5-methylisoxazol-4-yl)-N-(5-(phenylsulfinyl)pyridin-2-yl)acrylamide] |
| 0.1 | Cc1oncc1/C(O)=C(\C#N)C(=O)Nc1ccc(S(C)(=O)=O)cn1 [Example 91, (Z)-2-cyano-3-hydroxy-3-(5-methylisoxazol-4-yl)-N-(5-(methylsulfonyl)pyridin-2-yl)acrylamide] |
| 0.14 | Cc1oncc1/C(O)=C(\C#N)C(=O)Nc1ccc(S(=O)(=O)NC(C)(C)C)cn1 [Example 93, (Z)-N-(5-(N-(tert-butyl)sulfamoyl)pyridin-2-yl)-2-cyano-3-hydroxy-3-(5-methylisoxazol-4-yl)acrylamide] |
| 0.1 | Cc1oncc1/C(O)=C(\C#N)C(=O)Nc1ccc(S(=O)(=O)c2ccccc2)cn1 [Example 95, (Z)-2-cyano-3-hydroxy-3-(5-methylisoxazol-4-yl)-N-(5-(phenylsulfonyl)pyridin-2-yl)acrylamide] |
| 0.21 | Cc1oncc1/C(O)=C(\C#N)C(=O)Nc1ncc(Sc2ccccc2)cn1 [Example 97, (Z)-2-cyano-3-hydroxy-3-(5-methylisoxazol-4-yl)-N-(5-phenylsulfanylpyrimidin-2-yl)prop-2-enamide] |
| 0.09 | Cc1oncc1/C(O)=C(\C#N)C(=O)Nc1ncc(C(=O)N(C)c2ccccc2)cn1 [Example 99, 2-[[(Z)-2-cyano-3-hydroxy-3-(5-methylisoxazol-4-yl)prop-2-enoyl]amino]-N-methyl-N-phenyl-pyrimidine-5-carboxamide] |
| 0.15 | Cc1oncc1/C(O)=C(\C#N)C(=O)Nc1ncc(CCc2ccccc2)cn1 [Example 102, (Z)-2-cyano-3-hydroxy-3-(5-methylisoxazol-4-yl)-N-(5-phenethylpyrimidin-2-yl)acrylamide] |
| 0.04 | CCS(=O)(=O)c1cnc(NC(=O)/C(C#N)=C(\O)c2cnoc2C)nc1 [Example 103, (Z)-2-cyano-N-(5-(ethylsulfonyl)pyrimidin-2-yl)-3-hydroxy-3-(5-methylisoxazol-4-yl)acrylamide] |
| 0.15 | Cc1oncc1/C(O)=C(\C#N)C(=O)Nc1ncc(C(=O)Nc2ccccc2)cn1 [Example 105, 2-[[(Z)-2-cyano-3-hydroxy-3-(5-methylisoxazol-4-yl)prop-2-enoyl]amino]-N-phenyl-pyrimidin-5-carboxamide] |
| 5.01 | Cc1oncc1/C(O)=C(\C#N)C(=O)Nc1nc(Cl)c(-c2ccccc2)c(NS(=O)(=O)c2ccc(Cl)cc2)n1 [Example 108, (Z)-N-(4-chloro-6-((4-chlorophenyl)sulfonamido)-5-phenylpyrimidin-2-yl)-2-cyano-3-hydroxy-3-(5-methylisoxazol-4-yl)acrylamide] |
| 0.72 | Cc1oncc1/C(O)=C(\C#N)C(=O)Nc1ccc(S(=O)(=O)Cc2ccccc2Cl)cn1 [Example 109, (Z)—N-(5-((2-chlorobenzyl)sulfonyl)pyridin-2-yl)-2-cyano-3-hydroxy-3-(5-methylisoxazol-4-yl)acrylamide] |
| 0.02 | Cc1oncc1/C(O)=C(\C#N)C(=O)Nc1ncc(S(=O)(=O)c2ccccc2)cn1 [Example 111, (Z)-N-[5-(benzenesulfonyl)pyrimidin-2-yl]-2-cyano-3-hydroxy-3-(5-methylisoxazol-4-yl)prop-2-enamide] |
| 0.02 | Cc1oncc1/C(O)=C(\C#N)C(=O)Nc1ncc([S+]([O-])c2ccccc2)cn1 (stereo not shown) [Example 112, (Z)-N-[5-(benzenesulfinyl)pyrimidin-2-yl]-2-cyano-3-hydroxy-3-(5-methylisoxazol-4-yl)prop-2-enamide] |
| 0.33 | Cc1oncc1/C(O)=C(\C#N)C(=O)Nc1ccc(S(C)(=N)=O)cc1 (stereo not shown) [Example 113, (Z)-2-Cyano-3-hydroxy-3-(5-methylisoxazol-4-yl)-N-(4-(S-methylsulfonimidoyl)phenyl)acrylamide] |
| 0.12 | Cc1oncc1/C(O)=C(\C#N)C(=O)Nc1ccc(S(=N)(=O)c2ccccc2)cc1 (stereo not shown) [Example 114, (Z)-2-cyano-3-hydroxy-3-(5-methylisoxazol-4-yl)-N-(4-(phenylsulfonimidoyl)phenyl)acrylamide] |
| 0.18 | Cc1oncc1/C(O)=C(\C#N)C(=O)Nc1ccc(S(C)(=O)=O)cc1 [Example 115, (Z)-2-cyano-3-hydroxy-3-(5-methylisoxazol-4-yl)-N-(4-methylsulfonylphenyl) prop-2-enamide] |
